Results as given in patent publication US11719488B2, “Lyophilization process and a teverelix-TFA lyophilizate obtained thereby” (Antev Limited, priority 2018, dated 2023).
Where a name gives a salt, the structure may show the parent alone. Non-standard residues stand in square brackets, D forms with d. Residues, ends and D or L forms follow the SMILES beside them. dPhe(4-Cl) = N[C@H](Cc1ccc(Cl)cc1)C(=O)O; d2Nal = N[C@H](Cc1ccc2ccccc2c1)C(=O)O; d(hCit) = NC(=O)NCCCC[C@@H](N)C(=O)O; Lys(iPr) = CC(C)NCCCC[C@H](N)C(=O)O; d3Pal = N[C@H](Cc1cccnc1)C(=O)O

Experiment: Solubility of teverelix-TFA
Format: physicochemical

solubility in water: very low solubility in water
SMILES: CC(=O)N[C@H](Cc1ccc2ccccc2c1)C(=O)N[C@H](Cc1ccc(Cl)cc1)C(=O)N[C@H](Cc1cccnc1)C(=O)N[C@@H](CO)C(=O)N[C@@H](Cc1ccc(O)cc1)C(=O)N[C@H](CCCCNC(N)=O)C(=O)N[C@@H](CC(C)C)C(=O)N[C@@H](CCCCNC(C)C)C(=O)N1CCC[C@H]1C(=O)N[C@H](C)C(N)=O [Teverelix-TFA, Ac-D-Nal-D-pClPhe-D-Pal-Ser-Tyr-D-Hci-Leu-Lys(iPr)-Pro-D-Ala-NH2] (Ac-[d2Nal][dPhe(4-Cl)][d3Pal]SY[d(hCit)]L[Lys(iPr)]P[dA]-NH2)
